According to article PMC9854573, “Baicalein Attenuates Brain Iron Accumulation through Protecting Aconitase 1 from Oxidative Stress in Rotenone-Induced Parkinson’s Disease in Rats” (Antioxidants, 2022):

Experiments:
[1] = molecular target: T1, ACO1 (recombinant human ACO1 protein) (Homo sapiens, UniProt P21399); assay: surface plasmon resonance (Biacore X100, CM5 chip); assay type: binding
T1 construct: immobilised on CM5 chip at pH 4.0
T1 sequence (P21399 1-889): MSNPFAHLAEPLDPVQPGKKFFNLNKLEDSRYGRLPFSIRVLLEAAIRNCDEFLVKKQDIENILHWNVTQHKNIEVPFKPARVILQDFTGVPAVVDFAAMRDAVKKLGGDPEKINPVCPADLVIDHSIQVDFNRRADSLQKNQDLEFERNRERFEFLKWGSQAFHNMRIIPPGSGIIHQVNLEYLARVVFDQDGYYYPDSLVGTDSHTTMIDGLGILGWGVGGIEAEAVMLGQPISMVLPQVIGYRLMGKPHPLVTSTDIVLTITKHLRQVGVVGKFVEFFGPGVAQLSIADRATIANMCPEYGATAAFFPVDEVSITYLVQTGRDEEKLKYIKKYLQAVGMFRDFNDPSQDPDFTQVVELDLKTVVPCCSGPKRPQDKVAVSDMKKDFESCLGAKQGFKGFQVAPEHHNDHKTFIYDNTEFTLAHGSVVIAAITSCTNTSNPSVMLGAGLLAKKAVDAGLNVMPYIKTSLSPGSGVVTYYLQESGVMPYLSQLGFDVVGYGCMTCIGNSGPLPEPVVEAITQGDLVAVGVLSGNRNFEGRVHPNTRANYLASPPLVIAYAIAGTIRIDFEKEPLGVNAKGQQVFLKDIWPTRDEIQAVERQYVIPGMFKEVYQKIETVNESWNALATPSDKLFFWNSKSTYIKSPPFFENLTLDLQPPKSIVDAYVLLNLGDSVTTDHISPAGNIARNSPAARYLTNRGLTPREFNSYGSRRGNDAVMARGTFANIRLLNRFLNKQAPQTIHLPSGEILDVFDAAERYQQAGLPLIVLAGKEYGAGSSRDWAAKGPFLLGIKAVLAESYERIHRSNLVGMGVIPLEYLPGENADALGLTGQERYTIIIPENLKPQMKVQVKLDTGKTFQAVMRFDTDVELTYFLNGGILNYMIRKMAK

[2] = molecular target: T2, ACO1 (aconitase activity of rat heart homogenate supernatant); assay: aconitase activity, absorbance of aconitate at […] nm; assay type: biochemical; settings: 10 min preincubation, citrate 4 μM, 100 μg protein, Tris-HCl 20 mM pH 7.4, room temperature, no oxidant
T2 construct: crude rat heart homogenate, 12,000 x g supernatant

Structure (SMILES): O=c1cc(-c2ccccc2)oc2cc(O)c(O)c(O)c12 [baicalein, 5,6,7-trihydroxyflavone]
- Kd [1]: 198 µM
- IC50 [2]: 166 µM
